Measured values from the supplement of paper PMC10307832.

How the values were obtained:
Experiment in all cases: relative viability (nuclei count vs DMSO), 5 days (fraction); higher = more cells survive
LU99A = test system: LU99A
Outline: (§1)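 Lung cancer cell lines, seeded in 1536-well plates, were treated the following day by pin tool with a single drug or with five library-drug doses (not always all listed) in √10 steps on top of a fixed anchor-drug dose. Cells were fixed and nuclei stained in one step after 5 days, and nuclei were counted. Relative viability is the nuclei count for treated wells divided by that for vehicle wells, reported as medians of duplicate plates.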

NCI-H2405 = test system: NCI-H2405
Outline: as §1

EPLC-272H = test system: EPLC-272H
Outline: as §1

PC-3 [JPC-3] = test system: PC-3 [JPC-3]
Outline: as §1

NCI-H441 = test system: NCI-H441
Outline: as §1

EKVX = test system: EKVX
Outline: as §1

SW 1573 = test system: SW 1573
Outline: as §1

NCI-H2228 = test system: NCI-H2228
Outline: as §1

LK-2 = test system: LK-2
Outline: as §1

LXF-289 = test system: LXF-289
Outline: as §1

NCI-H522 = test system: NCI-H522
Outline: as §1

HOP-62 = test system: HOP-62
Outline: as §1

Work on Cc1csc(=NC2CCCCC2)n1/N=C/c1ccc(O)c(O)c1O [MIM1] + Nc1nc2[nH]cc(CCc3ccc(C(=O)N[C@@H](CCC(=O)O)C(=O)O)cc3)c2c(=O)[nH]1 [Pemetrexed] (partner 0.2 µM) yielded a relative viability (LU99A; first compound 0.2 µM) of 0.178, a relative viability (LU99A; first compound 0.6325 µM) of 0.193 and a relative viability (LU99A; first compound 2 µM) of 0.175. It also gave a relative viability (LU99A; first compound 6.325 µM) of 0.17, a relative viability (LU99A; first compound 20 µM) of 0.16 and a relative viability (NCI-H2405; first compound 0.2 µM) of 0.945. It also gave a relative viability (NCI-H2405; first compound 0.6325 µM) of 0.98, a relative viability (NCI-H2405; first compound 2 µM) of 1.17 and a relative viability (NCI-H2405; first compound 6.325 µM) of 0.752. For the same compound, the relative viability (NCI-H2405; first compound 20 µM) was 0.584, the relative viability (EPLC-272H; first compound 0.2 µM) was 0.328 and the relative viability (EPLC-272H; first compound 0.6325 µM) was 0.372. The relative viability (EPLC-272H; first compound 2 µM) was 0.27, the relative viability (EPLC-272H; first compound 6.325 µM) was 0.157 and the relative viability (EPLC-272H; first compound 20 µM) was 0.166. For the same compound, the relative viability (PC-3 [JPC-3]; first compound 0.2 µM) was 1.18, the relative viability (PC-3 [JPC-3]; first compound 0.6325 µM) was 1.04 and the relative viability (PC-3 [JPC-3]; first compound 2 µM) was 1.14. The relative viability (PC-3 [JPC-3]; first compound 6.325 µM) was 0.948, the relative viability (PC-3 [JPC-3]; first compound 20 µM) was 0.485 and the relative viability (NCI-H441; first compound 0.2 µM) was 0.259. The relative viability (NCI-H441; first compound 0.6325 µM) was 0.27, the relative viability (NCI-H441; first compound 2 µM) was 0.256 and the relative viability (NCI-H441; first compound 6.325 µM) was 0.232. It also gave a relative viability (NCI-H441; first compound 20 µM) of 0.159, a relative viability (EKVX; first compound 0.2 µM) of 0.374 and a relative viability (EKVX; first compound 0.6325 µM) of 0.392. It also gave a relative viability (EKVX; first compound 2 µM) of 0.318, a relative viability (EKVX; first compound 6.325 µM) of 0.287 and a relative viability (EKVX; first compound 20 µM) of 0.29. It also gave a relative viability (SW 1573; first compound 0.2 µM) of 0.851, a relative viability (SW 1573; first compound 0.6325 µM) of 0.93 and a relative viability (SW 1573; first compound 2 µM) of 0.877. For the same compound, the relative viability (SW 1573; first compound 6.325 µM) was 0.791, the relative viability (SW 1573; first compound 20 µM) was 0.18 and the relative viability (NCI-H2228; first compound 0.2 µM) was 0.386. For the same compound, the relative viability (NCI-H2228; first compound 0.6325 µM) was 0.345, the relative viability (NCI-H2228; first compound 2 µM) was 0.347 and the relative viability (NCI-H2228; first compound 6.325 µM) was 0.168. For the same compound, the relative viability (NCI-H2228; first compound 20 µM) was 0.152, the relative viability (LK-2; first compound 0.2 µM) was 0.276 and the relative viability (LK-2; first compound 0.6325 µM) was 0.298. For the same compound, the relative viability (LK-2; first compound 2 µM) was 0.197, the relative viability (LK-2; first compound 6.325 µM) was 0.272 and the relative viability (LK-2; first compound 20 µM) was 0.218. It also gave a relative viability (LXF-289; first compound 0.2 µM) of 0.9, a relative viability (LXF-289; first compound 0.6325 µM) of 0.737 and a relative viability (LXF-289; first compound 2 µM) of 0.891. It also gave a relative viability (LXF-289; first compound 6.325 µM) of 0.715, a relative viability (LXF-289; first compound 20 µM) of 0.453 and a relative viability (NCI-H522; first compound 0.2 µM) of 1.09. It also gave a relative viability (NCI-H522; first compound 0.6325 µM) of 1.31, a relative viability (NCI-H522; first compound 2 µM) of 0.951 and a relative viability (NCI-H522; first compound 6.325 µM) of 1.01. It also gave a relative viability (NCI-H522; first compound 20 µM) of 0.481, a relative viability (HOP-62; first compound 0.2 µM) of 0.362 and a relative viability (HOP-62; first compound 0.6325 µM) of 0.34.
